Source: ChEMBL document CHEMBL4184104, “Identification of novel allosteric inhibitors of mutant isocitrate dehydrogenase 1 by cross docking-based virtual screening” (Bioorg Med Chem Lett, 2018)

Tests used:
[1] = test system: Isocitrate dehydrogenase [NADP] cytoplasmic (Homo sapiens), O75874 [R132H]; test: Inhibition of IDH1 R132H mutant (unknown origin) expressed in HEK293T cells assessed as D2-HG level at 10 uM after 72 hrs relative to control; type: cell-based; settings: values are per cent of control
[2] = test system: Isocitrate dehydrogenase [NADP] cytoplasmic (Homo sapiens), O75874 [R132C]; test: Inhibition of IDH1 R132C mutant (unknown origin) expressed in HEK293T cells assessed as D2-HG level at 10 uM after 72 hrs relative to control; type: cell-based; settings: values are per cent of control
[3] = test system: Isocitrate dehydrogenase [NADP] cytoplasmic (Homo sapiens), O75874 [R132C]; test: Inhibition of IDH1 R132C mutant (unknown origin) expressed in HEK293T cells assessed as D2-HG level at 50 uM after 72 hrs relative to control; type: cell-based; settings: values are per cent of control
HEK-293T = test: (§1) Cytotoxicity against HEK293T cells harboring pMXs-IDH1wt-IRES-BsdRs assessed as cell survival at 50 uM after 72 hrs by CellTiterGlo assay relative to control; type: cell-based; settings: human, hek-293t, 72 h, 50 µM
[4] = test system: Isocitrate dehydrogenase [NADP] cytoplasmic (Homo sapiens), O75874 [R132H]; test: Inhibition of IDH1 R132H mutant (unknown origin) expressed in HEK293T cells assessed as D2-HG level at 50 uM after 72 hrs relative to control; type: cell-based; settings: values are per cent of control
[5] = Cytotoxicity against HEK293T cells harboring pMXs-IDH1wt-IRES-BsdRs assessed as cell survival at 10 uM after 72 hrs by CellTiterGlo assay relative to control; type: cell-based, HEK-293T; settings: human, read-out: Survival
[6] = Effective permeability of the compound at 25 ug/ml after 18 hrs by BBB-PAMPA method; type: ADME; settings: read-out: Peff
[7] = as §1; type: cell-based, HEK-293T; settings: human, HEK293T cells harboring pMXs-IDH1wt-IRES-BsdRs; read-out: Survival
[8] = target: Isocitrate dehydrogenase [NADP] cytoplasmic (Homo sapiens, UniProt O75874, R132C); test: Inhibition of IDH1 R132C mutant (unknown origin) expressed in HEK293T cells assessed as reduction in D2-HG level after 30 mins by resazurin-based fluorescence assay; type: cell-based
[9] = target: Isocitrate dehydrogenase [NADP] cytoplasmic (Homo sapiens, UniProt O75874, R132H); test: Inhibition of IDH1 R132H mutant (unknown origin) expressed in HEK293T cells assessed as reduction in D2-HG level after 30 mins by resazurin-based fluorescence assay; type: cell-based
Chain of Isocitrate dehydrogenase [NADP] cytoplasmic (Homo sapiens, UniProt O75874, R132H) (O75874 2-414 R132H limits assumed): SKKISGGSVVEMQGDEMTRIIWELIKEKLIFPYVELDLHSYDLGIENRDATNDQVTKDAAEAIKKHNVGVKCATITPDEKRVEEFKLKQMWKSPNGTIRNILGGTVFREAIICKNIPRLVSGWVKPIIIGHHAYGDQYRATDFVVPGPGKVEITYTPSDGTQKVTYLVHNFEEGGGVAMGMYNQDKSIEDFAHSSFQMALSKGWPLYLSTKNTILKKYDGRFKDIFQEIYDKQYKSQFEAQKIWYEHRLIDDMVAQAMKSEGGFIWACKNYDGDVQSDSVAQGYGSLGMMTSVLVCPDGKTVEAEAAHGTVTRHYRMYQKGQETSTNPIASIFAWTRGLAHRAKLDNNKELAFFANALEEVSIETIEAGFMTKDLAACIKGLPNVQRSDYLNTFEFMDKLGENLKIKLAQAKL

Chain of Isocitrate dehydrogenase [NADP] cytoplasmic (Homo sapiens), O75874 [R132H] (O75874 whole entry R132H): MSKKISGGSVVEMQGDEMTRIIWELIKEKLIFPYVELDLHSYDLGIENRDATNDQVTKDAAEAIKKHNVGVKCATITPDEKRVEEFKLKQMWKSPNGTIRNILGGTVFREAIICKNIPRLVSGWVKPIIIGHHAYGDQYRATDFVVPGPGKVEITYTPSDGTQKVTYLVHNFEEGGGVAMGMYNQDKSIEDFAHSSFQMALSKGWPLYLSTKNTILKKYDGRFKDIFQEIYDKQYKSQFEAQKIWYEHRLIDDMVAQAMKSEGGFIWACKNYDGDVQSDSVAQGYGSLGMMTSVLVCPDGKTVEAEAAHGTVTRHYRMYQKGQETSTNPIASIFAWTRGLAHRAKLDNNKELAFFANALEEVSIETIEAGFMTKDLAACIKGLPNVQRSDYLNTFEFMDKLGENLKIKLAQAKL
Chain of Isocitrate dehydrogenase [NADP] cytoplasmic (Homo sapiens), O75874 [R132C] (O75874 whole entry R132C): as the sequence (O75874 whole entry R132H) above, with H132C counted along it
Chain of Isocitrate dehydrogenase [NADP] cytoplasmic (Homo sapiens, UniProt O75874, R132C) (O75874 2-414 R132C limits assumed): as the sequence (O75874 2-414 R132H limits assumed) above, with H131C counted along it

SMILES | response, % of control [1] | response, % of control [2] | response, % of control [3] | response, % of control [4] | IC50 [8] | IC50 [9] | Activity (HEK-293T) | viability at 72 h, 10 µM [5] | Papp at 18 h, 25 ug/ml [6] | viability at 72 h, 50 µM [7]
Cc1ccc(NC(=O)c2cc([N+](=O)[O-])cc3c2-c2ccc([N+](=O)[O-])cc2C3=O)cc1 | 103% |  | 52.7% | 72.5% |  |  | Non-Toxic |  |  | 
CC(C)CCOc1cccc(C(=O)Nc2ccc(C(=O)Nc3cccc4ccccc34)cc2)c1 | 54.9% | 48.4% | 43.6% | 49.5% |  |  |  | 91.3% | 8.15 ×10⁻⁶ cm/s | 88.6%
O=C(Nc1cccc(NC(=O)c2cccc(S(=O)(=O)N3CCCCC3)c2)c1)c1ccc(Br)cc1 | 58.2% | 61.1% | 109% | 59.5% |  |  | Non-Toxic |  |  | 
COC(=O)C1C(=O)C2=C(CC1C)Nc1ccccc1NC2c1c[nH]c2ccccc12 (configuration not stated) |  |  |  |  | 50 µM | 50 µM |  |  |  | 

Continued, in another order:

response, % of control [1] | response, % of control [2] | response, % of control [3] | response, % of control [4] | IC50 [8] | IC50 [9] | SMILES | Activity (HEK-293T) | viability at 72 h, 10 µM [5] | Papp at 18 h, 25 ug/ml [6] | viability at 72 h, 50 µM [7]
91.3% | 79.3% | 40.9% | 39.9% |  |  | CC(O)c1cccc(NC(=O)c2cnn3c2NC(c2ccccc2)CC3C(F)(F)F)c1 (configuration not stated) | Non-Toxic |  |  | 
94.6% | 138% | 103% | 73.7% |  |  | COc1cccc(C(=O)Nc2cccc(OCC(=O)c3ccccc3)c2)c1 | Non-Toxic |  |  | 
96.7% | 123% | 34.7% | 32% |  |  | COc1ccccc1NC(=O)c1c(NCc2cccnc2)sc2c1CC[C@H](C)C2 | Non-Toxic |  |  | 
1.3% | 13.3% | 0.9% | 0.4% |  |  | Cc1ccccc1C(C(=O)NC1CCCCC1)N(C(=O)Cn1ccnc1C)c1cccc(F)c1 (configuration not stated) |  |  |  | 
86.2% | 86.1% | 50.4% | 66.3% |  |  | COC(=O)c1ccccc1NC(=O)CNCn1cnc2ccccc21 | Non-Toxic |  |  | 
